The test system of test [1] is caecal ligation and puncture (LPC) induced sepsis. The experiment in a line: Caecal ligation and puncture (LPC) induced sepsis model. Format: in vivo, mice. Conditions: for survival rate: compared with the control group; for Number of surviving mice: 185 mg/kg i.p. once daily; for bacterial load in the blood (bacterial DNA 16S by RT-PCR): 24 hours after LPC; for bacterial load in the blood (bacterial DNA 16S by RT-PCR) / clinical score (murine sepsis score): compared to the control group; for clinical score (murine sepsis score): after LPC at 24, 48, 72 and 96 hours; for temperature after LPC: rectal temperature, 24 hours after surgery. The procedure: The purpose of this study is to evaluate the effect of administration of compounds according to the invention (I-A and I-B) on the survival rate of mice in a caecal ligation and puncture (LPC) induced sepsis model.
The study consists of creating a sepsis model in mice by caecal ligation and puncture (LPC) and evaluating the impact of compounds I-A and I-B on the development of sepsis for 4 days.
The test compounds are administered at 185 mg/kg, intraperitoneally, immediately after the LPC procedure, and then once daily at 24, 48, and 72 hours. The remaining mice are euthanized at 96 hours post-LPC. Vehicle (physiological buffer) is used as a control and administered under the same conditions.
Mice are anesthetized with 3% Vetoflurane. A laparotomy is performed to exteriorize the caecum. For induction of medium grade sepsis, the caecum is ligated between the distal pole and the base of the caecum. A through puncture with a 21-gauge needle is performed. A small amount of excreta is extruded from the mesenteric and antimesenteric penetration holes to ensure patency. The caecum is repositioned over the abdominal cavity. The peritoneum, fascia, abdominal musculature and then the skin are closed by applying simple sutures. The animals are resuscitated by injecting pre-warmed normal saline (37° C.; 5 ml per 100 g body weight) subcutaneously.
Administration of Compound I-A at 185 mg/kg, Compound I-B at 185 mg/kg and vehicle (physiological buffer) is performed intraperitoneally immediately after LPC surgery and then once daily at 24, 48 and 72 hours post LPC.
Survival is assessed every 12 hours for the first two days, then once a day until euthanasia.
Rectal temperature is checked every 2 to 4 hours for the first day, then twice for the second day.
These two parameters are monitored once a day.
The clinical score is defined according to the criteria defined in Table 3:
24 hours after surgery, mice were anesthetized with Vetoflurane and blood was collected from the retroorbital sinus to quantify the bacterial load. Bacterial DNA (16S) is extracted and quantified by RT-PCR.

The test system of test [2] is Pseudomonas aeruginosa PAO1. The experiment in a line: Mouse model of respiratory tract infection induced by Pseudomonas aeruginosa PAO1, bacterial load. Format: in vivo, mice. As to conditions: day 5 post infection, I-A 185 mg/kg i.p., ciprofloxacin 2 mg/kg i.p., once a day. Here is the method:
The vehicle (physiological buffer) is used as a control and is administered under the same conditions.
In each group, the bacterial load in the blood and lungs is assessed on day 5 post infection.
Leukopenia is induced by intraperitoneal injections of cyclophosphamide 4 days and 1 day before infection, with doses of 150 mg/kg and 100 mg/kg, respectively. P. aeruginosa PAO1 was obtained from ATCC. One vial is thawed and diluted in sterile PBS on the day of infection.
Bacterial load is assessed in blood and lungs on day 5. Quantitative cultures on agar gel are performed during 24 hours of incubation at 37° C. Viable bacterial colony counts are expressed as Log 10 CFU per mL of blood or per gram of organ.

A further test relates to Escherichia coli. The experiment in a line: Non-lethal model of Escherichia coli induced pneumonia, bacterial culture in the spleen. The test is classed as in vivo, BALB/c mice. Conditions: for bacteria in the spleen: pre-treatment 185 mg/kg. The procedure:
The purpose of this study is to evaluate the effect of pre-treatment, with an NAD precursor, on the spread of bacterial infection to the spleen in a mouse model of non-lethal Escherichia coli (E. coli) induced pneumonia.
The administration of the compound at 185 mg/kg and the vehicle (physiological buffer) is performed intraperitoneally and/or intratracheally.
The compound of formula I-A (white powder) is dissolved in the vehicle. The solution is used at room temperature for a maximum of 1 day and freshly prepared for each new experiment.
Immediately before use, the E. coli culture was washed twice with 0.9% NaCl. After the second wash, the pellet was re-suspended in sterile saline and the dose calibrated by nephelometry.
Female BALB/c mice (20-24 g) were then inoculated using intratracheal insertion of a gavage needle (24 G) for injection of 75 μL of the bacterial suspension.
The compound of formula I-A and the vehicle are administered to the animals intraperitoneally and/or intratracheally. The injection of the compound of formula I-A is performed 24 hours prior to the infection with Escherichia coli. Simulated animals are given a physiological buffer by intraperitoneal administration.
At 24 hours, 48 hours, and 72 hours postoperatively, spleens from sacrificed animals were weighed and homogenized in 1 mL of saline. These solutions were then used for quantitative agar gel cultures during 24 hours of incubation at 37° C. Viable bacterial colony counts are expressed as Log 10 CFU per gram of organ.

As for `NC(=O)c1ccc[n+]([C@H]2O[C@H](COP(=O)([O-])O)[C@@H](O)[C@H]2O)c1` [Compound I-B], the survival rate result in test [1] (185 mg/kg i.p.) is recorded as “improved”. The “Number of surviving mice” value in test [1] (24 h after LPC) is given as 12/12; in test [1] (48 h after LPC) it was 9/12; in test [1] (72 h after LPC) it was 8/12; in test [1] (96 h after LPC), 6/12. Also, in test [1], the “bacterial load in the blood (bacterial DNA 16S by RT-PCR)” value was “significantly decreased”. The “clinical score (murine sepsis score)” value in test [1] is on record as “very significantly improved”. The weight loss entry in test [1] (after LPC over 24-96 hours, 185 mg/kg i.p.) was “the weight loss is less”. Further, the “temperature after LPC” value in test [1] (185 mg/kg i.p.) is reported as “regain their basal temperature”.

In the case of `NC(=O)c1ccc[n+]([C@@H]2O[C@H](COP(=O)([O-])O)[C@@H](O)[C@H]2O)c1` [Compound I-A], the survival rate entry in test [1] (185 mg/kg i.p.) is on record as “improved”. The “Number of surviving mice” value in test [1] (24 h after LPC) was 12/12; in test [1] (48 h after LPC) it was 11/12; in test [1] (72 h after LPC), 10/12; in test [1] (96 h after LPC), 9/12. Further, in test [1], the “bacterial load in the blood (bacterial DNA 16S by RT-PCR)” value is “significantly decreased”. For the same compound, in test [1], the “clinical score (murine sepsis score)” value is reported as “very significantly improved”. The “temperature after LPC” value in test [1] (185 mg/kg i.p.) is “regain their basal temperature”. For the same compound, in test [2], the “reduction of blood bacterial load compared to the vehicle group” value is listed as “approximately 2 log”. Moreover, in test [2] (compared with the vehicle group), the pulmonary bacterial load result is “antibacterial effect”. Further, the “percentage of animals with bacteria in the spleen” value in the test on Escherichia coli (after 24 hours, compared to the control group) was “greatly reduced”. For the same compound, the “percentage of positive bacterial culture in the spleen” value in the test with Escherichia coli (pre-treatment 185 mg/kg 24 hours prior to infection, intraperitoneal administration, compared to untreated mice (control)) is given as “reduced the percentage of positive cultures in the spleen”. Besides, the “bacteria in the spleen” value with Escherichia coli (48 h after intraperitoneal administration) and in the test with Escherichia coli (72 h after intratracheal administration) was “no bacteria were found in the spleen” throughout. Further, in the test on Escherichia coli (pre-treatment, intraperitoneal and/or intratracheal administration), the “spread of bacteria from the lungs to the spleen” value is listed as “prevented the spread of bacteria from the lungs to the spleen”.

These data come from patent US20230210881A1, “NICOTINAMIDE MONONUCLEOTIDE DERIVATIVES FOR THE TREATMENT OF BACTERIAL INFECTIONS” (NUVAMID SA, priority 2020, published 2023).
